Test results taken from PubChem BioAssay AID1963956 (Xavier Lab, Infectious Disease and Microbiome Program, …, 2024).
Active and inactive are the calls of the source.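 Rule for the calls: active = caspase-3 cutting of the mutant autophagy protein ATG16L1 lowered by over half at 20 µM; inactive = the rest.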

Target: Autophagy-related protein 16-1 (Homo sapiens) (UniProt Q676U5)
Test: blockers of caspase-3 processing of ATG16L1 variant – biochemical, AlphaLISA, recombinant protein, with or without FKBP12, dose response (AID 1963956)
Conditions: recombinant ATG16L1 T300A + caspase-3, AlphaLISA

Autophagy-related protein 16-1 (Homo sapiens), sequence (Q676U5 whole entry T300A, looked up): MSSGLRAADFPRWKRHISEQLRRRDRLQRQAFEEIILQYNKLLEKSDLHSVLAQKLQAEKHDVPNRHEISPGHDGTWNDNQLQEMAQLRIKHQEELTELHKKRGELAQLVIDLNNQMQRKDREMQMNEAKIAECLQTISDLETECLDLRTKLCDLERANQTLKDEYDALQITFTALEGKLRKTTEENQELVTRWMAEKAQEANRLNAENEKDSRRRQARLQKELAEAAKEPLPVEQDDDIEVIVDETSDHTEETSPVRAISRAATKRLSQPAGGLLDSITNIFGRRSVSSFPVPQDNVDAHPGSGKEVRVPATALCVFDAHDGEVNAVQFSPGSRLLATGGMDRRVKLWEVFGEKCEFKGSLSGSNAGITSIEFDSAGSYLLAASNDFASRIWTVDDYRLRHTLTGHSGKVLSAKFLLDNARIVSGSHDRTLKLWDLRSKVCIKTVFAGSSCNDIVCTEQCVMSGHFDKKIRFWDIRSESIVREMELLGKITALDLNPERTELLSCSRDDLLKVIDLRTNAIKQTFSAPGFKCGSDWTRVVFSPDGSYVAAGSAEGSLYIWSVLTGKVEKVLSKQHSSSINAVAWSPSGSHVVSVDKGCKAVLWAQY

| outcome (without FKBP12) | Compound | other results |
| --- | --- | --- |
| inactive | CCC(C)(C)C(=O)C(=O)N1CCCC[C@H]1C(=O)N[C@H](CCc1ccc(OC)cc1)C(=O)N1[C@@H]2CC[C@H]1CC(Nc1nc(NCCc3sc(N)nc3C)nc(NCc3ccnc(CO)c3)n1)C2 (some centres not stated) |  |
| inactive | CCC(C)(C)C(=O)C(=O)N1CCCC[C@H]1C(=O)N[C@H](CCc1ccc(OC)cc1)C(=O)N1CC(Nc2nc(NCCc3sc(N)nc3C)nc(NCCn3cnc4ccccc43)n2)C1 |  |
| inactive | CCC(C)(C)C(=O)C(=O)N1CCCC[C@H]1C(=O)N[C@H](CCc1ccc(OC)cc1)C(=O)N1[C@@H]2CC[C@H]1CC(NC(C)=O)C2 (some centres not stated) |  |
| inactive | CCC(C)(C)C(=O)C(=O)N1CCCC[C@H]1C(=O)N[C@H](CCc1ccc(OC)cc1)C(=O)N1CC[C@H](Nc2nc(NCCc3sc(N)nc3C)nc(N(C)Cc3nnc4n3CCC4)n2)C1 |  |
| inactive | CC(=O)N1[C@@H]2CC[C@H]1CC(Nc1nc(NCCc3sc(N)nc3C)nc(N3CCn4ncnc4C3)n1)C2 (some centres not stated) | outcome (with FKBP12): inactive |
|  | CCC(C)(C)C(=O)C(=O)N1CCCC[C@H]1C(=O)N[C@H](CCc1ccc(OC)cc1)C(=O)N1[C@@H]2CC[C@H]1CC(Nc1nc(NCCc3sc(N)nc3C)nc(N3CCn4ncnc4C3)n1)C2 (some centres not stated) | EC50 (with FKBP12): 10.8 µM; EC50 (without FKBP12): 12.1 µM |
| inactive | CCC(C)(C)C(=O)C(=O)N1CCCC[C@H]1C(=O)N[C@H](CCc1ccc(OC)cc1)C(=O)N1[C@@H]2CC[C@H]1CC(Nc1nc(NCCc3sc(N)nc3C)nc(NCCn3cnc4ccccc43)n1)C2 (some centres not stated) |  |
| inactive | CCC(C)(C)C(=O)C(=O)N1CCCC[C@H]1C(=O)N[C@H](CCc1ccc(OC)cc1)C(=O)N1[C@@H]2CC[C@H]1CC(Nc1nc(NCCc3sc(N)nc3C)nc(N(C)Cc3nnc4n3CCC4)n1)C2 (some centres not stated) |  |
| inactive | CCC(C)(C)C(=O)C(=O)N1CCCC[C@H]1C(=O)N[C@H](CCc1ccc(OC)cc1)C(=O)N1[C@@H]2CC[C@H]1CC(Nc1nc(NCCc3ccccc3)nc(N3CCn4ncnc4C3)n1)C2 (some centres not stated) | outcome (with FKBP12): inactive |
